Consider 18 compounds from the NIST ThermoML archive (doi:10.1016/j.jct.2006.04.005).

The conditions of data set [1]: 303.15 K, 101 kPa, Liquid; for viscosity: Capillary tube (Ostwald / Ubbelohde) method; for mass density: Pycnometric method.
A short description of data set [2]: xn = mol fraction of the nth substance listed. The settings on record: 303.15 K, 101 kPa, Liquid; for viscosity: Capillary tube (Ostwald / Ubbelohde) method; for excess molar volume: Direct dilatometry; for mass density: Pycnometric method.

Structures are written as SMILES. ± gives the expanded uncertainty stated by the source.

In general, speed of sound refers to how fast a sound wave travels through the sample. A word on the viscosity: it is the resistance of a fluid to flow. Usually mass density stands for the mass of a sample divided by its volume. On to `Clc1ccc(Cl)c(Cl)c1` [1,2,4-trichlorobenzene], for which, in data set [1], the speed of sound was 1260 ± 8 m/s, the viscosity is listed as 1.613 ± 0.041 mPa·s and the mass density worked out at 1442.14 ± 12 kg/m3.
In the same order, the values of `Clc1ccccc1Cl` [1,2-dichlorobenzene] are 1261 ± 8 m/s, 1.302 ± 0.033 mPa·s and 1299.24 ± 9.4 kg/m3.
Regarding `Clc1cccc(Cl)c1` [1,3-dichlorobenzene], in data set [1], the speed of sound turned out to be 1242 ± 11 m/s, the viscosity is recorded as 1.025 ± 0.026 mPa·s and the mass density stood at 1277.12 ± 9.1 kg/m3.
With `Cc1ccccc1Cl` [2-chlorotoluene], in data set [1], the speed of sound worked out at 1284 ± 8 m/s, the viscosity stood at 0.887 ± 0.023 mPa·s and the mass density turned out to be 1072.81 ± 6.5 kg/m3.
Regarding `Cc1ccccc1[N+](=O)[O-]` [2-nitrotoluene], in data set [1], the viscosity turned out to be 1.911 ± 0.049 mPa·s and the mass density was found to be 1153.24 ± 7.4 kg/m3.
For the compound `Cc1cccc(Cl)c1` [3-chlorotoluene], in data set [1], the speed of sound came out at 1280 ± 8 m/s, the viscosity was 0.78 ± 0.02 mPa·s and the mass density came out at 1065.21 ± 6.4 kg/m3.
As for `Cc1cccc([N+](=O)[O-])c1` [3-nitrotoluene], in data set [1], the viscosity was 1.777 ± 0.046 mPa·s and the mass density is 1147.67 ± 7.4 kg/m3.
As for `Cc1ccc(Cl)cc1` [4-chlorotoluene], in data set [1], the speed of sound is recorded as 1271 ± 8 m/s, the viscosity is listed as 0.9 ± 0.023 mPa·s and the mass density turned out to be 1060.54 ± 6.3 kg/m3.
Turning to `Cc1ccc(Cl)cc1` [4-chlorotoluene] + C[S+](C)[O-], the viscosity turned out to be 0.9 ± 0.023 mPa·s in data set [2] (x2 = 0); 1.039 ± 0.027 mPa·s in data set [2] (x2 = 0.0768); 1.094 ± 0.028 mPa·s in data set [2] (x2 = 0.1105); 1.16 ± 0.03 mPa·s in data set [2] (x2 = 0.1546); 1.232 ± 0.032 mPa·s in data set [2] (x2 = 0.2045); 1.287 ± 0.033 mPa·s in data set [2] (x2 = 0.2543). In addition, the viscosity in data set [2] (x2 = 0.3111) is 1.351 ± 0.035 mPa·s; in data set [2] (x2 = 0.3704), 1.41 ± 0.036 mPa·s; in data set [2] (x2 = 0.4904) it was 1.521 ± 0.039 mPa·s; in data set [2] (x2 = 0.5174), 1.544 ± 0.04 mPa·s; in data set [2] (x2 = 0.554), 1.573 ± 0.04 mPa·s; in data set [2] (x2 = 0.6014), 1.611 ± 0.041 mPa·s. In addition, the viscosity was 1.687 ± 0.043 mPa·s in data set [2] (x2 = 0.7074), 1.725 ± 0.044 mPa·s in data set [2] (x2 = 0.761), 1.76 ± 0.045 mPa·s in data set [2] (x2 = 0.8214) and 1.78 ± 0.046 mPa·s in data set [2] (x2 = 0.8906). For the same compound, the excess molar volume is 1.3e-08 ± 6e-09 m3/mol in data set [2] (x2 = 0.0768); 2.3e-08 ± 6e-09 m3/mol in data set [2] (x2 = 0.1105); 2.9e-08 ± 6e-09 m3/mol in data set [2] (x2 = 0.1546); 3.5e-08 ± 6e-09 m3/mol in data set [2] (x2 = 0.2045); 4.1e-08 ± 6e-09 m3/mol in data set [2] (x2 = 0.2543); 4.8e-08 ± 6e-09 m3/mol in data set [2] (x2 = 0.3111). Moreover, the excess molar volume amounted to 5.2e-08 ± 6e-09 m3/mol in data set [2] (x2 = 0.3704); 5.7e-08 ± 6e-09 m3/mol in data set [2] (x2 = 0.4904); 5.7e-08 ± 6e-09 m3/mol in data set [2] (x2 = 0.5174); 5.6e-08 ± 6e-09 m3/mol in data set [2] (x2 = 0.554); 5.3e-08 ± 6e-09 m3/mol in data set [2] (x2 = 0.6014); 4.5e-08 ± 6e-09 m3/mol in data set [2] (x2 = 0.7074). The excess molar volume in data set [2] (x2 = 0.761) came to 3.8e-08 ± 6e-09 m3/mol; in data set [2] (x2 = 0.8214), 3.2e-08 ± 6e-09 m3/mol; in data set [2] (x2 = 0.8906) it was 2e-08 ± 6e-09 m3/mol. The mass density in data set [2] (x2 = 0) stood at 1060.54 ± 6.3 kg/m3. Also, the speed of sound in data set [2] (x2 = 0) is 1271 ± 8 m/s; in data set [2] (x2 = 0.0768), 1292 ± 8 m/s; in data set [2] (x2 = 0.1105), 1302 ± 8 m/s; in data set [2] (x2 = 0.1546) it was 1312 ± 8 m/s; in data set [2] (x2 = 0.2045), 1327 ± 8 m/s; in data set [2] (x2 = 0.2543), 1340 ± 8 m/s. Further, the speed of sound in data set [2] (x2 = 0.3111) was determined as 1357 ± 8 m/s; in data set [2] (x2 = 0.3704) it was 1372 ± 8 m/s; in data set [2] (x2 = 0.4904) it was 1401 ± 8 m/s; in data set [2] (x2 = 0.5174) it was 1410 ± 8 m/s; in data set [2] (x2 = 0.554), 1418 ± 8 m/s; in data set [2] (x2 = 0.6014), 1430 ± 8 m/s. In addition, the speed of sound in data set [2] (x2 = 0.7074) is listed as 1453 ± 8 m/s; in data set [2] (x2 = 0.761), 1465 ± 9 m/s; in data set [2] (x2 = 0.8214), 1467 ± 9 m/s; in data set [2] (x2 = 0.8906), 1468 ± 9 m/s.
Consider `C[S+](C)[O-]` [dimethyl sulfoxide], for which, in data set [1], the speed of sound was determined as 1470 ± 9 m/s, the viscosity was 1.803 ± 0.046 mPa·s and the mass density is 1091.35 ± 6.7 kg/m3.
`C[S+](C)[O-]` [dimethyl sulfoxide] + Cc1ccc(Cl)cc1: in data set [2] (x1 = 1), the viscosity came to 1.803 ± 0.046 mPa·s, the mass density is 1091.35 ± 6.7 kg/m3 and the speed of sound was determined as 1470 ± 9 m/s.
With `C[S+](C)[O-]` [dimethyl sulfoxide] + Cc1cccc(Cl)c1, in data set [2] (x1 = 1), the viscosity turned out to be 1.803 ± 0.046 mPa·s, the mass density is 1091.35 ± 6.7 kg/m3 and the speed of sound stood at 1470 ± 9 m/s.
Turning to `C[S+](C)[O-]` [dimethyl sulfoxide] + Cc1cccc([N+](=O)[O-])c1, in data set [2] (x1 = 1), the mass density is listed as 1091.35 ± 6.7 kg/m3 and the speed of sound was 1470 ± 9 m/s.
Turning to `C[S+](C)[O-]` [dimethyl sulfoxide] + Cc1ccccc1Cl, in data set [2] (x1 = 1), the mass density was 1091.35 ± 6.7 kg/m3 and the speed of sound is reported as 1470 ± 9 m/s.
On to `C[S+](C)[O-]` [dimethyl sulfoxide] + Cc1ccccc1[N+](=O)[O-], for which, in data set [2] (x1 = 1), the viscosity stood at 1.803 ± 0.046 mPa·s, the mass density was 1091.35 ± 6.7 kg/m3 and the speed of sound is on record as 1470 ± 9 m/s.
`C[S+](C)[O-]` [dimethyl sulfoxide] + Clc1ccc(Cl)c(Cl)c1: in data set [2] (x1 = 1), the mass density is reported as 1091.35 ± 6.7 kg/m3 and the speed of sound amounted to 1470 ± 9 m/s.
With `C[S+](C)[O-]` [dimethyl sulfoxide] + Clc1cccc(Cl)c1, in data set [2] (x1 = 1), the mass density was determined as 1091.35 ± 6.7 kg/m3 and the speed of sound was found to be 1470 ± 13 m/s.
Consider `C[S+](C)[O-]` [dimethyl sulfoxide] + Clc1ccccc1Cl, for which, in data set [2] (x1 = 1), the viscosity stood at 1.803 ± 0.046 mPa·s, the mass density is listed as 1091.35 ± 6.7 kg/m3 and the speed of sound turned out to be 1470 ± 9 m/s.
